{"source": "patent US20260083691A1", "about": "“TREATING CANCERS WITH COMBINATIONS OF ANTI-CD20 ANTIBODY AND ACYLFULVENES” (Lantern Pharma Inc., priority 2023, published 2026)", "key": {"[1]": {"assay": "Tolerability (body weight, gross necropsy) in immune-proficient mice", "details": "4 mg/kg intravenously days 1, 8, 15", "method": "(§1) In this study, vehicle, LP-284 (4 mg/kg), and cyclophosphamide (25 mg/kg, a clinically relevant dose) were administered intravenously on days 1, 8, and 15, with three mice per treatment group. Blood samples were collected on Day 16 and analyzed by flow cytometry to quantify the B-cell populations."}, "[2]": {"system": "B-cells (CD19+ or CD20+)", "assay": "B-cell reduction in immune-proficient mice, blood analyzed by flow cytometry", "type": "in vivo", "method": "as §1"}, "[3]": {"system": "OCLLY1-derived tumor xenografts", "assay": "LP-284 alone and with rituximab in OCLLY1 DLBCL/HGBL-MYC/BCL2 tumor xenografts in mice", "type": "in vivo", "details": "for tumor growth inhibition (TGI): day 24, NOD.SCID mice", "method": "HRD genomic scars from 107 B-NHL patients in the Pan-Cancer Analysis of Whole Genomes (PCAWG) study were tested. At least 10% of B-NHL patients were likely HRD+, with approximately 90% of these cases being diffuse large B-cell lymphoma (DLBCL). […] The calculated bliss synergy score between LP-284 and Rituximab on day 24 is 10, indicating synergy.\nLP-284's efficacy in DLBCL/HGBL-MYC/BCL2 xenograft models was evaluated. LP-284, vehicle (saline), and Rituximab were administered intravenously in OCLLY1-derived tumor xenografts in mice. All vehicle-treated mice were sacrificed by day 24 due to excessive tumor size.\nLP-284 was tested for anti-tumor efficacy as a monotherapy and in combination with rituximab in OCI-LY 1 DLBCL/HGBL-MYC/BCL2 cell line-derived tumor xenografts in mice. Methods: OCLLY1 cells were implanted subcutaneously in NOD.SCID mice. The following treatments were initiated when the tumors reached a volume of >100 mm3: vehicle (saline, administered intravenously on days 1, 8, and 15 in a 28-day cycle), 2 mg/kg or 4 mg/kg LP-284 (administered intravenously on days 1, 8, and 15 in a 28-day cycle), 10 mg/kg rituximab (administered intravenously on days 1 and 15 in a 28-day cycle), 2 mg/kg LP-284 and 10 mg/kg rituximab in combination. Four mice were used in each treatment group. Tumor Growth Inhibition (TGI) was calculated as % TGI=(1−((Tt/T0)/(Ct/C0)))/(1−(C0/Ct))*100 where Tt=mean tumor volume of treated at time t, TO=mean tumor volume of treated at time 0, Ct=mean tumor volume of control at time t, CO=mean tumor volume of control at time 0."}}}
{"molecule": "CC1=C(CN(O)C(N)=O)C2=C(C)C3(CC3)[C@](C)(O)C(=O)C2=C1", "note": "[LP-284, (+)-hydroxyureamethyl acylfulvene]", "values": [{"measurement": "body weight", "setting": "[1]", "value": "normal body weight"}, {"measurement": "gross necropsy findings", "setting": "[1]", "value": "no abnormal findings"}, {"measurement": "tolerability", "setting": "[1]", "value": "well-tolerated"}, {"measurement": "reduction of B-cells (CD19+ or CD20+)", "setting": "[2]; iv, 4 mg/kg, 384 h", "value": "approximately 30%"}, {"measurement": "tumor growth inhibition (TGI)", "setting": "[3]; 2 mg/kg LP-284 alone intravenously days 1, 8, 15", "value": 57, "unit": "%"}, {"measurement": "tumor growth inhibition (TGI)", "setting": "[3]; 4 mg/kg LP-284 intravenously days 1, 8, 15", "value": 99, "unit": "%"}, {"measurement": "tumor volume", "setting": "[3]; by day 24, versus vehicle (saline), intravenous", "value": "significantly reduced tumor volume"}]}
{"molecule": "O=P1(N(CCCl)CCCl)NCCCO1", "note": "(centres unmarked) [cyclophosphamide, reference compound]", "values": [{"measurement": "reduction of B-cells (CD19+ or CD20+)", "setting": "[2]; cyclophosphamide 25 mg/kg intravenously days 1, 8, 15, blood collected Day 16, immune-proficient mice", "value": "comparable to the reduction achieved by cyclophosphamide"}]}
